This passage reports IC50 results from patent publication US10953012B2, “Heterocyclic compounds for the inhibition of pask” (BioEnergenix LLC, priority 2011, dated 2021).

One assay addresses CK2a2 (Homo sapiens (Human), UniProt P19784). The assay can be described thus: Biochemical Assay for CK2 Activity. Conditions: 33P-ATP radiochemical assay; read-out: IC50 CK2 a2. In a few lines:
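GST-tagged full-length human CK2a2 from insect cells (1.2 nM) with 20 μM RRRDDDSDDD peptide, in pH 7.5 HEPES buffer with MgCl2, DTT and 1% DMSO. Reactions started with ³³P-ATP were run for 120 min at room temperature. Substrate phosphorylation was measured by P81 phosphocellulose filter binding and scintillation counting.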

In assay [1] the target is PASK (UniProt #Q96RG2; residues 879-1323) (Homo sapiens (Human), UniProt Q96RG2). The assay can be described thus: PASK ATP Radiochemical Assay. In kind it is biochemical. Conditions: 33P-ATP radiochemical assay; read-out: IC50 Kinase Domain. A digest of the protocol: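 Radiometric kinase assay: GST-tagged PASK (5 nM final) from insect cells with Myelin Basic Protein (20 μM) in HEPES pH 7.5 buffer, 1% DMSO; reaction started with ^33P-ATP, 120 min at room temperature. Substrate phosphorylation captured on P81 paper and read by scintillation counting.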

The target in assay [2] is PASK (Homo sapiens (Human), UniProt Q96RG2). The experiment in a line: PAS Kinase FRET Assay. In kind it is biochemical. Conditions: TR-FRET assay; read-out: IC50 Kinase Domain. In a few lines: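 Reaction buffer: 50 mM HEPES, 10 mM MgCl2, 1 mM EGTA, 2 mM DTT, 0.01% Tween-20. Test compounds (eleven-point series prepared at 4× final) preceded PASK and substrate/ATP. Reaction ran 2 h at 25 °C in the dark, then stopped. Phospho-ULight peptide detected by Eu-antibody TR-FRET, 665/615 nm ratio.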
In general terms: Time-resolved FRET reads energy transfer from a long-lived donor to a nearby acceptor.

Chain of PASK (Homo sapiens (Human), UniProt Q96RG2) (Q96RG2 999-1251): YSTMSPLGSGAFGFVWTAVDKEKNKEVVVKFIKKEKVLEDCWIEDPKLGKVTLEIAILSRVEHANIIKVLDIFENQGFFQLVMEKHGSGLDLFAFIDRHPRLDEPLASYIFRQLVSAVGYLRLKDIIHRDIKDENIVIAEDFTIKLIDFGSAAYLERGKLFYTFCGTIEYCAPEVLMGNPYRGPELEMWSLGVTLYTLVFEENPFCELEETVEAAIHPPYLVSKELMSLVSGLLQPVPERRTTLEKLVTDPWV
Chain of CK2a2 (P19784 whole entry): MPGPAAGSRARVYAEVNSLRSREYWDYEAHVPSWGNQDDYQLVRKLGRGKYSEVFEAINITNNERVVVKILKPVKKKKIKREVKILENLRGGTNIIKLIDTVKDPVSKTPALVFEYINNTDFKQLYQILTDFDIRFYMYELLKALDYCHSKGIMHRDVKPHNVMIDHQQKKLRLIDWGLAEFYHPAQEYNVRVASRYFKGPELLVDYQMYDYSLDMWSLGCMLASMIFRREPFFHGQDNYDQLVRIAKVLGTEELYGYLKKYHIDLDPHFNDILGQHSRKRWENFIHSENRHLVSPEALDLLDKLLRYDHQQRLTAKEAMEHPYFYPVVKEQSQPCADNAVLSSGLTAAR
Chain of PASK (UniProt #Q96RG2; residues 879-1323) (Homo sapiens (Human), UniProt Q96RG2) (Q96RG2 879-1323): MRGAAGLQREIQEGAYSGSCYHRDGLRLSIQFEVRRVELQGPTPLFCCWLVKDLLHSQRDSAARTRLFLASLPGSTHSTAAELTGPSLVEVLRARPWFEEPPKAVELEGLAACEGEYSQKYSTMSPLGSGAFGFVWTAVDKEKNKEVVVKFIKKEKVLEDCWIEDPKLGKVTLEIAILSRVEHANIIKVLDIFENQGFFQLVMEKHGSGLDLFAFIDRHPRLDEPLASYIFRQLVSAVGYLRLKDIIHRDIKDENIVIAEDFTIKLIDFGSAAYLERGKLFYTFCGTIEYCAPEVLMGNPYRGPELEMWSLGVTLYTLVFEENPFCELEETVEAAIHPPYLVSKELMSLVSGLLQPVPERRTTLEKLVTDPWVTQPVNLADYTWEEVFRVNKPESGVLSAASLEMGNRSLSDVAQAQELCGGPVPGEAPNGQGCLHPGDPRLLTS

As for `CCCNC(=O)c1c(N)nn2c(=O)cc(-c3ccc(Cl)cc3)[nH]c12` [Example 225, 2-Amino-5-(4-chlorophenyl)-7-oxo-N-propyl-4,7-dihydropyrazolo[1,5-a]pyrimidine-3-carboxamide], the IC50 at CK2a2, on PASK [1] and at PASK [2] was at most 10 µM each time.

Take `CCCNC(=O)c1c(O)nn2c(=O)cc(-c3ccc4c(c3)OCO4)[nH]c12` [Example 227, 5-(Benzo[d][1,3]dioxol-5-yl)-2-hydroxy-7-oxo-N-propyl-4,7-dihydropyrazolo[1,5-a]pyrimidine-3-carboxamide]: the half-maximal inhibitory concentration (IC50) on CK2a2, on PASK [1] and at PASK [2] was at most 10 µM throughout.

Regarding `COc1c(-c2cc(=O)n3nc(N)c(-c4ccccn4)c3[nH]2)ccc2c1OCO2` [Example 234, 2-Amino-5-(4-methoxybenzo[d][1,3]dioxol-5-yl)-3-(pyridin-2-yl)pyrazolo[1,5-a]pyrimidin-7(4H)-one], the IC50 on CK2a2, on PASK [1] and at PASK [2] was at most 10 µM each time.

As for `COc1c(-c2cc(=O)n3nc(O)c(-c4ccccn4)c3[nH]2)ccc2c1OCO2` [Example 235, 2-Hydroxy-5-(4-methoxybenzo[d][1,3]dioxol-5-yl)-3-(pyridin-2-yl)pyrazolo[1,5-a]pyrimidin-7(4H)-one], the IC50 on CK2a2, at PASK [1] and at PASK [2] was at most 10 µM throughout.

For `COc1c(-c2cc(=O)n3nc(C)c(-c4ccccn4)c3[nH]2)ccc2c1OCO2` [Example 237, 5-(4-Methoxybenzo[d][1,3]dioxol-5-yl)-2-methyl-3-(pyridin-2-yl)pyrazolo[1,5-a]pyrimidin-7(4H)-one], the IC50 at CK2a2, on PASK [1] and at PASK [2] was at most 10 µM in each case.

In the case of `COc1cc2[nH]nnc2cc1-c1cc(=O)n2nc(N)c(-c3ccccn3)c2[nH]1` [Example 243, 2-Amino-5-(6-methoxy-1H-benzo[d][1,2,3]triazol-5-yl)-3-(pyridin-2-yl)pyrazolo[1,5-a]pyrimidin-7(4H)-one], the results for the IC50 on CK2a2, at PASK [1] and at PASK [2] were at least 10 µM, at most 10 µM and at most 10 µM, respectively.

As to `COc1c(-c2cc(=O)n3ncc(-c4ccccn4)c3[nH]2)ccc2[nH]nnc12` [Example 245, 5-(4-Methoxy-1H-benzo[d][1,2,3]triazol-5-yl)-3-(pyridin-2-yl)pyrazolo[1,5-a]pyrimidin-7(4H)-one], the IC50 on CK2a2, at PASK [1] and on PASK [2] was at most 10 µM throughout.

As for `O=c1cc(-c2cc3nn[nH]c3cc2F)[nH]c2c(-c3ccccn3)cnn12` [Example 249, 5-(6-Fluoro-1H-benzo[d][1,2,3]triazol-5-yl)-3-(pyridin-2-yl)pyrazolo[1,5-a]pyrimidin-7(4H)-one], the IC50 on CK2a2, at PASK [1] and at PASK [2] was at most 10 µM in each case.

As to `O=c1cc(-c2ccc(-c3ncco3)cc2)[nH]c2c(-c3ccccn3)cnn12` [Example 254, 5-(4-(Oxazol-2-yl)phenyl)-3-(pyridin-2-yl)pyrazolo[1,5-a]pyrimidin-7(4H)-one], the 50% inhibitory concentration (IC50) on CK2a2 was at least 10 µM; on PASK [1], at most 10 µM; at PASK [2] it was at most 10 µM.

In the case of `N#Cc1ccc(-c2cc(=O)n3ncc(-c4ccccn4)c3[nH]2)cc1` [Example 256, 4-(7-Oxo-3-(pyridin-2-yl)-4,7-dihydropyrazolo[1,5-a]pyrimidin-5-yl)benzonitrile], the IC50 at CK2a2 is at least 10 µM; on PASK [1], at most 10 µM; on PASK [2], at most 10 µM.

The IC50 is the point on the concentration scale where inhibition reaches its midpoint.
